Data reported in patent US6569842B2 (Board of Trustees of the University of Illinois, The, priority 2000, dated 2003).
In brackets after ≈: the same amount, converted by molar mass. Read-outs that look alike come from different tables or passages of the source.

Assays:
U373 (glioma) [1] = assay: Cytotoxicity against cultured U373 cells (SRB); type: cell-based, human
COL-2 (colon) [2] = assay: Cytotoxicity against cultured COL-2 cells (SRB); type: cell-based, human; details: Method B, sample dissolved in tissue culture media
[3] = mouse, in vivo, 500 mg/kg
Protocol: In particular, the data was derived from experiments wherein four week old athymic mice were injected subcutaneously in the right flank with 3.0×10^8 UISO MEL-2 cells. UISO MEL-2 is a cell line derived from metastatic melanoma from human pleural fluid. Drug treatment was initiated on the day following tumor cell injection and continued every fourth day for a total of six doses. […] The mice were weighed, and the tumors measured with a micrometer every other day throughout the study. All animals were sacrificed and autopsied on day 33, when the mean tumor volume in the control animals was approximately one cm^3.

LU-1 (lung) = assay: Cytotoxicity against cultured LU-1 cells (SRB); type: cell-based, human; details: for IC50: Homo sapiens, Lu1, 72 h, Method A, sample dissolved in DMSO, three days incubation, read-out: ED50 LU-1
Protocol: (§1) Cytotoxicity of the crude extracts and purified compounds was determined in a number of cultured human cancer cell lines. Table 1 sets forth the various types of cancer cells evaluated using Method A. The cells were cultured in appropriate media and under standard conditions. To maintain logarithmic growth, the media were changed 24 hours prior to cytotoxic assays. On the day of the assay, the cells were harvested by trypsinization, counted, diluted in media, and added to 96-well plates containing test compounds dissolved in DMSO. The final DMSO concentration was 0.05%.
(§2) In each of Methods A-C, the plates were incubated for three days. Following the incubation period, the cells were fixed and stained with sulforhodamine B (SRB) dye. The bound dye was liberated with Tris base, and the OD515 (optical density at 515 nm) was measured on an ELISA reader. The growth of the betulinic acid-treated cells was determined by the OD515 values, and the growth was compared to the OD515 values of treated control cells of Methods A-C. Dose response studies were performed to generate ED50 values. As used herein, the term OD515 is defined as optical density at 515 nm, and the term ED50 is defined as the concentration of a compound required to reduce cell number by 50%.

[4] = 200 and 400 mg/kg doses; cited from earlier work
U373 (glioma) [5] = assay: Cytotoxicity against cultured U373 cells (SRB); type: cell-based, human; details: Method A, sample dissolved in DMSO; three days incubation
Protocol: as §1, §2

A431 (squamous cells) = assay: Cytotoxicity against cultured A431 cells (SRB); type: cell-based, human
Protocol: as §1, §2

LNCaP (prostate) [6] = assay: Cytotoxicity against cultured LNCaP cells (SRB); type: cell-based, human; details: Method A, sample dissolved in DMSO; three days incubation
Protocol: as §1, §2

ZR-75-1 (breast) [7] = assay: Cytotoxicity against cultured ZR-75-1 cells (SRB); type: cell-based, human; details: Homo sapiens, ZR-75-1, 72 h, read-out: ED50 ZR 75-1
Protocol: as §1, §2

BC-1 (breast) [8] = assay: Cytotoxicity against cultured BC-1 cells (SRB); type: cell-based, human; details: Homo sapiens, BC1, 72 h, read-out: ED50 BC-1
Protocol: as §1
as §2, with “The growth of the betulinic acid-treated cells was determined by the OD515 values, and the growth was compared to the OD515 values of treated control cells of Methods A-C.” left out

UISO MEL-1 cells = assay: In vivo study, MEL-1 tumors in athymic mice; details: 5, 50 or 250 mg/kg/dose IP betulinic acid/PVP every fourth day, six doses
Protocol: In particular, four-week-old athymic mice were injected subcutaneously in the right flank with 5.0×10^8 UISO MEL-1 cells. Drug treatment was initiated on the day following tumor cell injection and continued every fourth day for a total of six doses. […] The mice were weighed, and tumors were measured with a micrometer every third day throughout the study. Treated animals were sacrificed and autopsied on day 41, when the mean tumor volume in the control mice was approximately 0.5 cm^3. The control mice then received six doses of 50 mg/kg every fourth day beginning day 41 and were sacrificed and autopsied on day 71.
The results with respect to MEL-1 cells were similar to the results with respect to MEL-2 cells.

[9] = system: KB (human oral epidermoid carcinoma); assay: Cytotoxicity against cultured KB cells (SRB); type: cell-based
Protocol: as §1, §2

ZR-75-1 (breast) [10] = assay: Cytotoxicity against cultured ZR-75-1 cells (SRB); type: cell-based, human
HT-1080 (sarcoma) = assay: Cytotoxicity against cultured HT-1080 cells (SRB); type: cell-based, human; details: for IC50: Homo sapiens, HT-1080, 72 h, Method A, sample dissolved in DMSO, three days incubation, read-out: ED50 HT-1080
Protocol: as §1, §2

BC-1 (breast) [11] = assay: Cytotoxicity against cultured BC-1 cells (SRB); type: cell-based, human; details: Method B, sample dissolved in tissue culture media
LNCaP (prostate) [12] = assay: Cytotoxicity against cultured LNCaP cells (SRB); type: cell-based, human
[13] = system: MEL-4 human melanoma cell line; assay: Cytotoxicity against cultured MEL-4 cells (SRB); type: cell-based
Protocol: as §1, §2

MEL-2 (melanoma) [14] = assay: Cytotoxicity against cultured MEL-2 cells (SRB); type: cell-based, human
MEL-2 (melanoma) [15] = assay: Cytotoxicity against cultured MEL-2 cells (SRB); type: cell-based, human; details: Homo sapiens, MEL2, 72 h, read-out: ED50 MEL-2
Protocol: as §1, §2

[16] = system: MEL-1 human melanoma cell line; assay: Cytotoxicity against cultured MEL-1 cells (SRB); type: cell-based
Protocol: as §1, §2

[17] = system: human neuroblastoma cell lines; assay: Cytotoxic activity against neuroblastoma cell lines; type: cell-based
[18] = system: MEL-3 human melanoma cell line; assay: Cytotoxicity against cultured MEL-3 cells; type: cell-based; details: dose-response study
Protocol: as §2

COL-2 (colon) [19] = assay: Cytotoxicity against cultured COL-2 cells (SRB); type: cell-based, human; details: Homo sapiens, Col2, 72 h, read-out: ED50 COL-2
Protocol: as §1, §2

[20] = Method B, sample dissolved in tissue culture media
[21] = Method C, sample dissolved in 5% aqueous bovine serum albumin
[22] = Method A, sample dissolved in DMSO, three days incubation

Compound: C=C(C)[C@@H]1CC[C@]2(C(=O)O)CC[C@]3(C)[C@H](CC[C@@H]4[C@@]5(C)CC[C@H](O)C(C)(C)[C@@H]5CC[C@]43C)[C@@H]12 [Betulinic acid, 3β-hydroxy-lup-20 (29)ene-28-oic acid]
- ED50 U373 (U373 (glioma) [1]; [20]): 12.1 µg/mL (≈ 26.5 µM)
- ED50 U373 (U373 (glioma) [1]; [21]): 18.7 µg/mL (≈ 40.9 µM)
- ED50 Col2 (COL-2 (colon) [2]): 13.3 µg/mL (≈ 29.1 µM)
- acute toxicity and body weight [3]: without causing acute signs of toxicity or a decrease in body weight
- IC50 (LU-1 (lung)): > 20 µg/mL
- ED50 Lu1 (LU-1 (lung); [20]): 7.7 µg/mL (≈ 16.9 µM)
- activity in Hippocratic screen [4]: inactive
- ED50 U373 (U373 (glioma) [5]): >20 µg/mL
- ED50 A431 (A431 (squamous cells); [22]): >20 µg/mL
- ED50 A431 (A431 (squamous cells); [20]): 12.1 µg/mL (≈ 26.5 µM)
- ED50 A431 (A431 (squamous cells); [21]): >20 µg/mL
- ED50 LNCaP (LNCaP (prostate) [6]): >20 µg/mL
- IC50 (ZR-75-1 (breast) [7]; [22]): > 20 µg/mL
- IC50 (BC-1 (breast) [8]; [22]): > 20 µg/mL
- activity against MEL-1 tumors (UISO MEL-1 cells): active
- ED50 KB [9, 20]: >20 µg/mL
- ED50 KB [9, 21]: 16.6 µg/mL (≈ 36.3 µM)
- ED50 ZA-75-1 (ZR-75-1 (breast) [10]; [20]): 6.4 µg/mL (≈ 14 µM)
- ED50 ZA-75-1 (ZR-75-1 (breast) [10]; [21]): 6.9 µg/mL (≈ 15.1 µM)
- IC50 (HT-1080 (sarcoma)): > 20 µg/mL
- ED50 HT (HT-1080 (sarcoma); [20]): 11.3 µg/mL (≈ 24.7 µM)
- ED50 HT (HT-1080 (sarcoma); [21]): 10.0 µg/mL (≈ 21.9 µM)
- ED50 BC1 (BC-1 (breast) [11]): 11.2 µg/mL (≈ 24.5 µM)
- ED50 LNCaP (LNCaP (prostate) [12]; [20]): 19.3 µg/mL (≈ 42.3 µM)
- ED50 LNCaP (LNCaP (prostate) [12]; [21]): 16.6 µg/mL (≈ 36.3 µM)
- ED50 MEL-4 [13, 22]: 4.8 µg/mL (≈ 10.5 µM)
- ED50 Mel4 [13, 20]: 1.6 µg/mL (≈ 3.5 µM)
- ED50 Mel2 (MEL-2 (melanoma) [14]; [20]): 0.9 µg/mL (≈ 1.97 µM)
- ED50 Mel2 (MEL-2 (melanoma) [14]; [21]): 1.6 µg/mL (≈ 3.5 µM)
- IC50 (MEL-2 (melanoma) [15]; [22]): ~2 µg/mL (≈ 4.38 µM)
- ED50 MEL-1 [16, 22]: 1.1 µg/mL (≈ 2.41 µM)
- ED50 Mel1 [16, 20]: 0.9 µg/mL (≈ 1.97 µM)
- cytotoxic activity against human neuroblastoma cell lines [17]: excellent cytotoxic activity
- ED50 MEL-3 [18]: 3.3 µg/mL (≈ 7.23 µM)
- IC50 (COL-2 (colon) [19]; [22]): > 20 µg/mL

Compound: CC[C@@]1(O)C(=O)OCc2c1cc1n(c2=O)Cc2cc3ccccc3nc2-1 [Camptothecin]
- ED50 LNCaP (LNCaP (prostate) [6]): 0.006 µg/mL (≈ 0.0172 µM)
- IC50 (ZR-75-1 (breast) [7]; [22]): 0.001 µg/mL (≈ 0.00287 µM)
- IC50 (BC-1 (breast) [8]; [22]): 0.07 µg/mL (≈ 0.201 µM)
- IC50 (HT-1080 (sarcoma)): 0.01 µg/mL (≈ 0.0287 µM)
- IC50 (MEL-2 (melanoma) [15]; [22]): 0.02 µg/mL (≈ 0.0574 µM)
- IC50 (COL-2 (colon) [19]; [22]): 0.005 µg/mL (≈ 0.0144 µM)

Compound: Cc1c2ccncc2c(C)c2c1[nH]c1ccccc12 [Ellipticine]
- IC50 (LU-1 (lung)): 0.02 µg/mL (≈ 0.0812 µM)
- ED50 U373 (U373 (glioma) [5]): 1.6 µg/mL (≈ 6.5 µM)
- ED50 A431 (A431 (squamous cells); [22]): 0.5 µg/mL (≈ 2.03 µM)
- ED50 LNCaP (LNCaP (prostate) [6]): 0.8 µg/mL (≈ 3.25 µM)
- IC50 (ZR-75-1 (breast) [7]; [22]): 0.9 µg/mL (≈ 3.65 µM)
- IC50 (BC-1 (breast) [8]; [22]): 0.2 µg/mL (≈ 0.812 µM)
- ED50 KB [9, 22]: 0.04 µg/mL (≈ 0.162 µM)
- IC50 (HT-1080 (sarcoma)): 1.8 µg/mL (≈ 7.31 µM)
- IC50 (MEL-2 (melanoma) [15]; [22]): 0.9 µg/mL (≈ 3.65 µM)
- IC50 (COL-2 (colon) [19]; [22]): 0.3 µg/mL (≈ 1.22 µM)

Compound: COC(=O)C[C@](O)(CCCC(C)(C)O)C(=O)O[C@@H]1C(OC)=C[C@]23CCCN2CCc2cc4c(cc2[C@H]13)OCO4 [Homoharringtonine]
- IC50 (LU-1 (lung)): 0.03 µg/mL (≈ 0.055 µM)
- ED50 U373 (U373 (glioma) [5]): 0.2 µg/mL (≈ 0.367 µM)
- ED50 A431 (A431 (squamous cells); [22]): 0.02 µg/mL (≈ 0.0367 µM)
- ED50 LNCaP (LNCaP (prostate) [6]): 0.03 µg/mL (≈ 0.055 µM)
- IC50 (ZR-75-1 (breast) [7]; [22]): 0.06 µg/mL (≈ 0.11 µM)
- IC50 (BC-1 (breast) [8]; [22]): 0.03 µg/mL (≈ 0.055 µM)
- IC50 (HT-1080 (sarcoma)): 0.01 µg/mL (≈ 0.0183 µM)
- IC50 (MEL-2 (melanoma) [15]; [22]): 0.04 µg/mL (≈ 0.0733 µM)
- IC50 (COL-2 (colon) [19]; [22]): 0.1 µg/mL (≈ 0.183 µM)

Compound: COc1cc([C@@H]2c3cc4c(cc3[C@H](O)[C@H]3COC(=O)[C@H]23)OCO4)cc(OC)c1OC [Podophyllotoxin]
- ED50 U373 (U373 (glioma) [5]): 0.004 µg/mL (≈ 0.00965 µM)
- ED50 A431 (A431 (squamous cells); [22]): 0.03 µg/mL (≈ 0.0724 µM)
- ED50 LNCaP (LNCaP (prostate) [6]): 0.04 µg/mL (≈ 0.0965 µM)
- IC50 (ZR-75-1 (breast) [7]): 0.4 µg/mL (≈ 0.965 µM)
- IC50 (BC-1 (breast) [8]): 0.03 µg/mL (≈ 0.0724 µM)
- ED50 KB [9, 22]: 0.08 µg/mL (≈ 0.193 µM)
- IC50 (MEL-2 (melanoma) [15]): 0.003 µg/mL (≈ 0.00724 µM)
- IC50 (COL-2 (colon) [19]): 0.005 µg/mL (≈ 0.0121 µM)
